Data published in patent publication US10828316B2, “Method of treating bacterial infections” (priority 2016, dated 2020).
Converted amounts (≈) assume the structure as drawn.

Key:
[1] = test system: K. pneumoniae EN0463; assay: MIC; type: cell-based, Klebsiella pneumoniae
[2] = test system: K. oxytoca EN0392; assay: MIC; type: cell-based, Klebsiella oxytoca
[3] = test system: K. pneumoniae EN0233; assay: MIC; type: cell-based
[4] = test system: E. coli EN013; assay: MIC; type: cell-based, Escherichia coli
[5] = test system: P. aeruginosa EN0004; assay: MIC; type: cell-based
[6] = test system: S. sonnei APV00908; assay: MIC; type: cell-based; settings: S. sonnei APV00908
[7] = test system: K. pneumoniae EN0006; assay: MIC; type: cell-based
[8] = test system: E. coli B EN0458; assay: MIC; type: cell-based, Escherichia coli B
[9] = test system: K. pneumoniae EN010; assay: MIC; type: cell-based, Klebsiella pneumoniae
[10] = test system: P. aeruginosa EN015; assay: MIC; type: cell-based, Pseudomonas aeruginosa; further: test concentration or dose not given here
[11] = test system: E. aerogenes EN0461; assay: MIC; type: cell-based, Enterobacter aerogenes
[12] = test system: E. coli EN0001; assay: MIC; type: cell-based
[13] = test system: S. typhimurium EN0466; assay: MIC; type: cell-based, Salmonella typhimurium
[14] = test system: S. flexneri APV00907; assay: MIC; type: cell-based; settings: S. flexneri APV00907
[15] = test system: K. pneumoniae EN006; assay: MIC; type: cell-based, Klebsiella pneumoniae
[16] = test system: S. flexneri APV00906; assay: MIC; type: cell-based; settings: S. flexneri APV00906
[17] = test system: Helicobacter pylori APV00918; assay: MIC; type: cell-based; settings: in FdUrd+trimethoprim+uridine combination
Source text: (§1) Inhibition of Heliobacter is important in view of increasing resistance and its association to gastric cancer.

[18] = test system: Helicobacter pylori ATTC43504; assay: MIC; type: cell-based
Source text: as §1

[19] = test system: E. coli EN002; assay: MIC; type: cell-based, Escherichia coli
[20] = test system: S. epidermidis EN0456; assay: MIC; type: cell-based, Staphylococcus epidermidis
[21] = test system: A. baumannii EN0007; assay: MIC; type: cell-based, A. baumanii
[22] = test system: E. coli EN001; assay: MIC; type: cell-based, Escherichia coli
[23] = test system: A. baumannii EN017; assay: MIC; type: cell-based, Acinetobacter baumannii
[24] = test system: K. pneumoniae EN011; assay: MIC; type: cell-based, Klebsiella pneumoniae; further: test concentration or dose not given here
[25] = test system: K. pneumoniae EN0401; assay: MIC; type: cell-based
[26] = test system: K. pneumoniae EN0436; assay: MIC; type: cell-based
[27] = test system: E. coli EN012; assay: MIC; type: cell-based, Escherichia coli
[28] = test system: E. coli EN0235; type: cell-based
[29] = test system: P. aeruginosa EN004; assay: MIC; type: cell-based, Pseudomonas aeruginosa; settings: in FdUrd+trimethoprim+uridine combination
[30] = test system: P. mirabilis ST19 EN0445; assay: MIC; type: cell-based, Proteus mirabilis; settings: in FdUrd+trimethoprim+uridine combination
[31] = test system: P. aeruginosa EN0459; assay: MIC; type: cell-based, Pseudomonas aeruginosa; settings: in FdUrd+trimethoprim+uridine combination
[32] = test system: E. coli EN0139; assay: MIC; type: cell-based; settings: in FdUrd+trimethoprim+uridine combination
[33] = test system: A. baumannii EN007; assay: MIC; type: cell-based, Acinetobacter baumannii; settings: in FdUrd+trimethoprim+uridine combination
[34] = test system: P. aeruginosa EN0460; assay: MIC; type: cell-based, Pseudomonas aeruginosa; settings: in FdUrd+trimethoprim+uridine combination
[35] = test system: M. luteus EN0455; assay: MIC; type: cell-based, Micrococcus luteus; settings: in FdUrd+trimethoprim+uridine combination
[36] = test system: S. aureus EN008; assay: MIC; type: cell-based, Staphylococcus aureus; settings: in FdUrd+trimethoprim+uridine combination
[37] = test system: E. coli EN003; assay: MIC; type: cell-based, Escherichia coli; settings: in FdUrd+trimethoprim+uridine combination
[38] = test system: E. coli EN0138; assay: MIC; type: cell-based; settings: in FdUrd+trimethoprim+uridine combination
[39] = test system: K. pneumoniae EN0140; assay: MIC; type: cell-based; settings: in FdUrd+trimethoprim+uridine combination
[40] = Combination 1 (AZT+trimethoprim+uridine)
[41] = Combination 2 (same mixed with thymidine)
[42] = in FdUrd+trimethoprim+uridine combination
[43] = in AZT+trimethoprim+uridine combination
[44] = in didanosine+trimethoprim+uridine combination

COc1cc(Cc2cnc(N)nc2N)cc(OC)c1OC [Trimethoprim, trimethoprim]
MIC [1, 40]: 0.125 µg/mL | MIC [1, 41]: 0.25 µg/mL | MIC [2, 40]: 0.064 µg/mL | MIC [2, 42]: 0.25 µg/mL | MIC [3, 43]: 0.25 µg/mL | MIC ([4]; Escherichia coli, EN013, E. coli EN013, Combination 1 (AZT+trimethoprim+uridine)): < 0.008 µg/mL | MIC ([4]; Escherichia coli, EN013, E. coli EN013, Combination 2 (same mixed with thymidine)): < 0.008 µg/mL | MIC ([4]; Escherichia coli, EN013, E. coli EN013, in AZT+trimethoprim+uridine combination): < 0.008 µg/mL | MIC ([4]; Escherichia coli, EN013, E. coli EN013, in FdUrd+trimethoprim+uridine combination): 0.032 µg/mL | MIC ([4]; Escherichia coli, EN013, E. coli EN013, in didanosine+trimethoprim+uridine combination): 0.032 µg/mL | MIC [5, 43]: >4 µg/mL | MIC [5, 42]: >8 µg/mL | MIC [5, 44]: >8 µg/mL | MIC [6, 43]: 0.03 µg/mL | MIC [6, 42]: >8 µg/mL | MIC [7, 43]: 0.25 µg/mL | MIC [7, 42]: 1 µg/mL | MIC [7, 44]: 1 µg/mL | MIC [8, 42]: 0.064 µg/mL | MIC [8, 44]: 0.064 µg/mL | MIC [9, 40]: 0.25 µg/mL | MIC ([10]; Pseudomonas aeruginosa, EN015, P. aeruginosa EN015, Combination 1 (AZT+trimethoprim+uridine)): 2 µg/mL | MIC ([10]; Pseudomonas aeruginosa, EN015, P. aeruginosa EN015, Combination 2 (same mixed with thymidine)): 2 µg/mL | MIC ([10]; Pseudomonas aeruginosa, EN015, P. aeruginosa EN015, in AZT+trimethoprim+uridine combination): 2 µg/mL | MIC ([10]; Pseudomonas aeruginosa, EN015, P. aeruginosa EN015, in FdUrd+trimethoprim+uridine combination): 2 µg/mL | MIC ([10]; Pseudomonas aeruginosa, EN015, P. aeruginosa EN015, in didanosine+trimethoprim+uridine combination): 2 µg/mL | MIC [11, 40]: 0.25 µg/mL | MIC [11, 43]: 0.25 µg/mL | MIC [12, 43]: 0.125 µg/mL | MIC [12, 42]: 0.5 µg/mL | MIC [12, 44]: 0.5 µg/mL | MIC [13, 40]: 0.064 µg/mL | MIC [13, 42]: 0.25 µg/mL | MIC [14, 43]: 2 µg/mL | MIC [14, 42]: >8 µg/mL | MIC [15, 40]: 0.125 µg/mL | MIC [16, 43]: 1 µg/mL | MIC [16, 42]: >8 µg/mL | MIC [17]: 0.125 µg/mL | MIC [18, 43]: 0.125 µg/mL | MIC [18, 42]: 0.125 µg/mL | MIC [19, 41]: 0.125 µg/mL | MIC [19, 42]: 0.064 µg/mL | MIC [19, 44]: 0.064 µg/mL | MIC [20, 40]: 0.064 µg/mL | MIC [20, 44]: 0.125 µg/mL | MIC [21, 43]: >4 µg/mL | MIC [21, 42]: >8 µg/mL | MIC [21, 44]: >8 µg/mL | MIC [22, 40]: 0.064 µg/mL | MIC [22, 42]: 0.25 µg/mL | MIC [22, 44]: 0.25 µg/mL | MIC ([23]; Acinetobacter baumannii, EN017, A. baumannii EN017, Combination 1 (AZT+trimethoprim+uridine)): 1 µg/mL | MIC ([23]; Acinetobacter baumannii, EN017, A. baumannii EN017, Combination 2 (same mixed with thymidine)): 1 µg/mL | MIC ([23]; Acinetobacter baumannii, EN017, A. baumannii EN017, in AZT+trimethoprim+uridine combination): 1 µg/mL | MIC ([23]; Acinetobacter baumannii, EN017, A. baumannii EN017, in FdUrd+trimethoprim+uridine combination): 1 µg/mL | MIC ([23]; Acinetobacter baumannii, EN017, A. baumannii EN017, in didanosine+trimethoprim+uridine combination): 2 µg/mL | MIC ([24]; Klebsiella pneumoniae, EN011, K. pneumoniae EN011, Combination 1 (AZT+trimethoprim+uridine)): 0.032 µg/mL | MIC ([24]; Klebsiella pneumoniae, EN011, K. pneumoniae EN011, Combination 2 (same mixed with thymidine)): 0.25 µg/mL | MIC ([24]; Klebsiella pneumoniae, EN011, K. pneumoniae EN011, in AZT+trimethoprim+uridine combination): 0.125 µg/mL | MIC ([24]; Klebsiella pneumoniae, EN011, K. pneumoniae EN011, in FdUrd+trimethoprim+uridine combination): 0.125 µg/mL | MIC ([24]; Klebsiella pneumoniae, EN011, K. pneumoniae EN011, in didanosine+trimethoprim+uridine combination): 0.25 µg/mL | MIC [25, 42]: >8 µg/mL | MIC [25, 44]: >8 µg/mL | MIC [26, 43]: 0.125 µg/mL | MIC [27, 42]: 0.064 µg/mL | MIC [27, 44]: 0.125 µg/mL

O=c1[nH]c(=O)n([C@H]2C[C@H](O)[C@@H](CO)O2)cc1F [FdUrd]
MIC [28]: 0.06 µg/mL (≈ 0.244 µM) | MIC [1, 42]: 0.25 µg/mL | MIC [2, 42]: 0.125 µg/mL | MIC [3, 42]: 0.5 µg/mL | MIC ([4]; E. coli EN013, in FdUrd+trimethoprim+uridine combination): 0.016 µg/mL | MIC [5, 42]: >4 µg/mL | MIC [29]: >4 µg/mL | MIC [6, 42]: >4 µg/mL | MIC [7, 42]: 0.5 µg/mL | MIC [8, 42]: 0.032 µg/mL | MIC [9, 42]: 0.5 µg/mL | MIC [30]: 0.5 µg/mL | MIC [31]: >4 µg/mL | MIC [32]: 0.5 µg/mL | MIC ([10]; P. aeruginosa EN015, in FdUrd+trimethoprim+uridine combination): 1 µg/mL | MIC [11, 42]: 1 µg/mL | MIC [12, 42]: 0.25 µg/mL | MIC [13, 42]: 0.125 µg/mL | MIC [14, 42]: >4 µg/mL | MIC [15, 42]: 0.5 µg/mL | MIC [16, 42]: >4 µg/mL | MIC [17]: 0.06 µg/mL | MIC [18, 42]: 0.06 µg/mL | MIC [33]: >4 µg/mL | MIC [19, 42]: 0.032 µg/mL | MIC [34]: >4 µg/mL | MIC [20, 42]: <0.008 µg/mL | MIC [21, 42]: >4 µg/mL | MIC [35]: 2 µg/mL | MIC [36]: <0.008 µg/mL | MIC [37]: 0.016 µg/mL | MIC [22, 42]: 0.125 µg/mL | MIC ([23]; A. baumannii EN017, in FdUrd+trimethoprim+uridine combination): 0.5 µg/mL | MIC [38]: 0.25 µg/mL | MIC ([24]; K. pneumoniae EN011, in FdUrd+trimethoprim+uridine combination): 0.064 µg/mL | MIC [25, 42]: >4 µg/mL | MIC [26, 42]: 0.25 µg/mL | MIC [27, 42]: 0.032 µg/mL | MIC [39]: >4 µg/mL
